Results on nine compounds are retold here after patent US20250127800A1, “PYRIMIDINE OR PYRIDINE DERIVATIVE AND MEDICINAL USE THEREOF” (SIGNET THERAPEUTICS INC., priority 2021, published 2025).

Usually IC50 stands for the point on the concentration scale where inhibition reaches its midpoint. High values mean weaker potency in that assay, low ones greater potency in that assay. What is called AUC(0-inf) is the area under the concentration-time curve extrapolated to infinity. Low readings indicate less exposure, high ones more exposure. By AUC(0-t) is commonly meant exposure summed from dosing to a finite time, without extrapolation to infinity. The low end stands for less exposure, the high end for more exposure. For orientation: Cmax means the maximum level reached in the sampled fluid or tissue. Usually Tmax stands for the time from dosing to the highest level. Usually half-life stands for the time in which the quantity being followed falls by half. Low values mean fast loss, high ones slow loss.

Data set [1] has as its system NUGC4 cells. As to the kind of experiment: Cell proliferation inhibition, NUGC4 (CELL TITER-GLO). The format is cell-based. To be noted: Homo sapiens, NUGC-4, 96 h; NUGC4, 4 days. The protocol: (§1) • a. SNU-668 cells (catalog number: 00668, KCLB) or NUGC4 cells (catalog number: 0834, JCRB) were allowed to grow to 70%-80% confluence, the supernatant of the culture medium was pipetitted off, rinsed once with PBS and then pipetitted off; • b. To a 10 cm dish was added 1 mL of 0.25% trypsin, votexed to homogenity and then place into incubator for digestion for 2-3 min; • c. The culture dish is removed from the incubator added with 2-3 mL complete culture medium to terminate the digestion, pipetitted into a 15 mL centrifuge tube, and then centrifuged in centrifuge at 1000 rpm for 5 minutes; • d. The supernatant was pipetitted off, and the cells were resuspended in 1 mL of complete culture medium, and then counted; • e. 1000 cells were plated into each well of 96-well plate, and then cultured overnight in a cell incubator, 2) Cell Administration with Compounds • a. Compounds to be tested were dissolved and votexed to homogeneity; • b. Each compound was serielly diluted in 1:3 ratio from 1 mM stock solution to 9 gradient concentrations; • c. The plate seeded with cells was taken out from the incubator, pipetitted off culture medium, and then added slowly in each well with 100 μL fresh culture medium by multi-channel pipette. Wells are labeled by corresponding compounds and concentrations, and then gently added with 100 μL compound-containing culture medium along the well wall by multi-channel pipette; • d. After the addition to all wells, the plate was gently shaken to allow homogeneous spread of the compound, and then put back to the incubator, with time recorded;
(§2) 4 days after the addition of compounds, the culture medium was removed and mixed at 100 μL from each well with cell titer-glo testing liquid in 1:1 ratio. The mixture was incubated with shaking at room temperature for 10 min and then counted with Plate reader.

Data set [2] deals with SNU-668 cells. The data set is described as follows: Cell proliferation inhibition, SNU-668 (CELL TITER-GLO). Format: cell-based. To be noted: Homo sapiens, SNU668, 96 h; SNU-668, 4 days. The protocol:
as §1, §2
(Cellular ATP, detected with luciferase, serves as a proxy for viable cell number.)

In data set [3] the test system is activated YAP (non-p-YAP). The data set is described as follows: Western Blot of activated YAP in DGC organoid model. The format is cell-based. To be noted: 48 hours, dose-dependent. The protocol:
(§3) Experimental procedures: Organoids were amplified in 6-well plates (7 Matrigel aliquots per well) for 2-3 days prior to evaluation. After passage, 1000 cells were inoculated in 5 μl Matrigel aliquot into each well containing 100 μl 50% L-WRN medium in a 96-well plate. Organoids were cultured for 24 hours, followed by addition of the compounds. Compounds were dissolved in DMSO as stock solution (with a final concentration of […]), which was then diluted with DMSO to 1000× concentration of the testing concentration. Culture medium was added to the stock solution to dilute to the testing concentration. The diluted solution was added to the culture plate. Once compound was added, culture medium was no longer added, and no further compound added. After the organoids were cultured for a specified number of days, the effects of compounds were evaluated by the following three methods, each using DMSO as negative control.
(§4) 2. After cell culture in accordance with the above procedure and culture with compounds for 48 hours, the cells were lysed, and proteins were extracted and tested by Western Blot. After gel imaging, gray values of protein bands were analyzed to investigate the effects of the compounds on phosphorylated FAK and activated YAP in the organoid model. (For detailed methods, please refer to Haisheng Zhang, Cancer Discovery, 2020).

Data set [4] has as its target T1, FAK (Homo sapiens (Human), UniProt Q05397). The data set is described as follows: In vitro enzymatic inhibitory activity, FAK kinase (HTRF KinEASE-TK). The following applies: FAK kinase, enzyme pre-incubation 15 minutes at 25° C.
For data set [5], the system named is FAK (p-FAK 397). As to the kind of experiment: Western Blot of phosphorylated FAK in DGC organoid model. The following applies: 48 hours, dose-dependent. Format: cell-based. The protocol: as §3, §4
The test system of data set [6] is diffuse-type gastric cancer (DGC) organoid. As to the kind of experiment: Cell morphology in diffuse-type gastric cancer (DGC) organoid model. Format: cell-based. The following applies: 500 nM compound. Here is the method: as §3
1. There was a difference in cell morphology between normal cells and the diffuse-type gastric cancer (DGC) organoid model. Normal organoids have hollow spheroid shape, while organoids of diffuse-type gastric cancer have solid grape-like irregular shape. Therefore, the observations of the effect of drugs on cell morphology may be one of the important characteristics for evaluating drug efficacy.

For data set [7], the target named is YAP (non-p-YAP) (Homo sapiens (Human), UniProt P46937). The data set is described as follows: Western blot of YAP activity in SNU-668 cell line model. The format is cell-based. To be noted: SNU668, 24 hours. Here is the method:
• a. SNU-668 cells (catalog number: 00668, KCLB) were allowed to grow to 70%-80% confluence, the supernatant of the culture medium was pipetitted off, rinsed once with PBS and then pipetitted off; • b. To a 10 cm dish was added 2 mL trypsin, and digested in an incubator for 3-5 min; • c. The culture dish is removed from the incubator added with 5 mL 1640 medium (containing 10% FBS) to terminate the digestion, pipetitted into a 15 mL centrifuge tube, and then centrifuged in centrifuge at 1000 rpm for 5 minutes; • d. The supernatant was pipetitted off, added with 5 mL 1640 medium (containing 10% FBS). the cells were resuspended thoroughly and mix well, then counted; • e. 1.5×10^5 cells were seeded into each well of 12-well plate, and then cultured in a cell incubator for 24 h. 2) Cell Treatment with Compounds • a. Stock solutions of the compounds to be tested (1 mM) were diluted in DMSO, and blown and nixed several times to homogeneity; • b. The plate seeded with cells was taken out from the incubator, gently added in wells with 1 ul 1 mM stocks (1000× diluted) along the well wall, and then gently shaken immediately to homogeneity; • c. After the addition to all wells, the plate was gently shaken to allow homogeneous spread of the compound, and then put back to the incubator, with time recorded; Samples were collected after 24 hours.
• a. […]
Background: In western blotting, separated proteins are transferred to a membrane and probed.

Data set [8] can be described thus: In vivo pharmacokinetic evaluation in SD rats, gavage. The following applies: rat, plasma, po, male SD rats, 5 mg/kg. The protocol:
Three male SD rats were administered with compounds in a single dose of 5 mg/kg or 3 mg/kg by gavage, and blood samples were collected before administration and at 0.25, 0.5, 1, 2, 4, 6, 8, and 24 h after administration.
Preparation of solutions of compounds to be dosed at 5 mg/kg: 5.5 mg compound (converted based on purity) was accurately weighed and added to 0.55 mL of DMSO. Clear solutions were obtained after stirring and sonication. 0.5 mL of each of the above solutions was added with 1 mL of Solutol, stirred for 1 minute; and then added with 8.5 mL of physiological saline and stirred for 1 minute, to obtain a clear solution at 0.5 mg/mL concentration.
Preparation of a solution of compounds to be dosed at 3 mg/kg: 3.6 mg compound (converted according to purity) was accurately weighed and added to 0.6 mL of DMSO. Clear solutions were obtained after stirring and sonication. 0.5 mL of each of the above solutions was added with 1 mL of Solutol and stirred for 1 minute; and then added with 8.5 mL of physiological saline and stirred for 1 minute, to obtain a clear solution at 0.3 mg/mL concentration.
Rats were administered the formulations prepared in step 2 by gavage at a dose of 10 mL/kg. The rats were fasted overnight before the administration and resumed feeding 4 hours after administration. Throughout the entire experiment, the animals were free to access drinking water.
The plasma concentration was measured using LC-MS/MS method.

The target in data set [9] is T1, FAK. As to the kind of experiment: Time-dependent FAK kinase inhibition activity test. The format is biochemical.

Structures are written as SMILES.

T1 sequence (Q05397 whole entry, species assumed): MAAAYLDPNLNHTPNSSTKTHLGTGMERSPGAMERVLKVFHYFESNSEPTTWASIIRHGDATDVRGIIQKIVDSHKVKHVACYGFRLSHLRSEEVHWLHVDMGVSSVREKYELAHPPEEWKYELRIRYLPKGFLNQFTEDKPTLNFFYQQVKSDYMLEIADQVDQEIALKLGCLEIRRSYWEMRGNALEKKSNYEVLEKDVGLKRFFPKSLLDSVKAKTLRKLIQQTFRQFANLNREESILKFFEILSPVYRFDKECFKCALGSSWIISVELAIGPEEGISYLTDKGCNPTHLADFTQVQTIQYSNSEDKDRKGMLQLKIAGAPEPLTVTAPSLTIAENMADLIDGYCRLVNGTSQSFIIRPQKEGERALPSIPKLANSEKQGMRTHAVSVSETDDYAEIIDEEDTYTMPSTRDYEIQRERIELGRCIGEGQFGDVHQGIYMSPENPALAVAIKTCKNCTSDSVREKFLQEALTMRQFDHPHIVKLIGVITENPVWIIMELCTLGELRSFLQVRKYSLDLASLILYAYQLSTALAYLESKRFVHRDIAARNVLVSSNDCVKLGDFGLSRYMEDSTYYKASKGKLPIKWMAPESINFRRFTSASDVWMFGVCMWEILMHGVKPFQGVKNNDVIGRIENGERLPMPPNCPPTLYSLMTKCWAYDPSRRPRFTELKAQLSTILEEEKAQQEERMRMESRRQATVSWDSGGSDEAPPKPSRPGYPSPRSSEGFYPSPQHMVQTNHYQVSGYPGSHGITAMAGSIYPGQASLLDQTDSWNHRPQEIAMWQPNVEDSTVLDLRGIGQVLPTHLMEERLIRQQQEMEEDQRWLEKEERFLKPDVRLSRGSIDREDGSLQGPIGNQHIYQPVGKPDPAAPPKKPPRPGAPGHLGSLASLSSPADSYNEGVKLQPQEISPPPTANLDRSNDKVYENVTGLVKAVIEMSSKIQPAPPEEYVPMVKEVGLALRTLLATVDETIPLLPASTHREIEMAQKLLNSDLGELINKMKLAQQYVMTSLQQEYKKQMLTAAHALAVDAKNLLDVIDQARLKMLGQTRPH

Turning to `C#CC(=O)N1CCCC(c2cccc(NCc3ccc(Nc4ncc(C(F)(F)F)c(Nc5ccccc5C(=O)NC)n4)cc3)c2)C1` (stereo not drawn) [Compound 31], the IC50 was 20 nM in [1] and under 10 nM in data set [2].
As to `C=CC(=O)N1CCCC(c2cccc(NCc3ccc(Nc4ncc(C(F)(F)F)c(Nc5cccc(F)c5C(=O)NC)n4)cc3)c2)C1` (stereo not drawn) [Compound 13, 2-((2-((4-(((3-(1-acryloylpiperidin-3-yl)phenyl)amino)methyl)phenyl)amino)-5-(trifluoromethyl)pyrimidin-4-yl)amino)-6-fluoro-N-methylbenzamide], the “inhibition of activated YAP (non-p-YAP)” value in [3] was “inhibit the activated YAP (non-p-YAP)”. The same compound registered an IC50 in data set [4] of 19.8 nM. In addition, the “inhibition of phosphorylation of FAK (p-FAK 397)” value (from here on “inhibition … (p-FAK 397)”) in data set [5] is “can inhibit the phosphorylation of FAK (p-FAK 397)”.
Consider `C=CC(=O)N1CCCC1c1ccc(NCc2ccc(Nc3ncc(C(F)(F)F)c(Nc4ccccc4C(=O)NC)n3)cc2)cc1` (stereo not drawn) [Compound 9, 2-((2-((4-(((4-(1-acryloylpyrrolidin-2-yl)phenyl)amino)methyl)phenyl)amino)-5-(trifluoromethyl)pyrimidin-4-yl)amino)-N-methylbenzamide], for which the “effect on cell morphology of DGC organoid” value in [6] was “significantly better effects than defactinib and IN-10018”. In addition, the “inhibition of activated YAP (non-p-YAP)” value in [3] was “inhibit the activated YAP (non-p-YAP)”. The compound further registered an IC50 in data set [4] of 3.71 nM. Moreover, in data set [5], the “inhibition … (p-FAK 397)” value is reported as “can inhibit the phosphorylation of FAK (p-FAK 397)”.
In the case of `C=CC(=O)N1CCCC(c2cccc(NCc3ccc(Nc4ncc(C(F)(F)F)c(Nc5ccccc5S(=O)(=O)NC(C)C)n4)cc3)c2)C1` (stereo not drawn) [Compound 19, 2-((2-((4-(((3-(1-acryloylpiperidin-3-yl)phenyl)amino)methyl)phenyl)amino)-5-(trifluoromethyl)pyrimidin-4-yl)amino)-N-isopropylbenzenesulfonamide], the results for the IC50 in [1], in [2] and in data set [4] were 90 nM, 210 nM and 10.4 nM, respectively.
For the compound `CNC(=O)c1ccc(Nc2ncc(C(F)(F)F)c(NCc3nccnc3N(C)S(C)(=O)=O)n2)cc1` [Defactinib, reference compound], in data set [1], the IC50 stood at 1370 nM. Moreover, the “inhibition of YAP activity (non-p-YAP)” value in [7] was “no inhibiting effect on YAP activity”. Besides, in [8], the AUC(0-inf) worked out at 0.441 µM·h, the AUC(0-t) came out at 0.424 µM·h, the peak level (Cmax) was 99.5 nM and the Tmax amounted to 4 h. Also, the half-life in data set [8] is 1.2 h.
For `C=CC(=O)N1CCCC(c2cccc(NCc3ccc(Nc4ncc(C(F)(F)F)c(Nc5ccccc5C(=O)NC)n4)cc3)c2)C1` (stereo not drawn) [Compound 6, 2-((2-((4-(((3-(1-acryloylpiperidin-3-yl)phenyl)amino)methyl)phenyl)amino)-5-(trifluoromethyl)pyrimidin-4-yl)amino)-N-methylbenzamide], the IC50 in data set [9] (enzyme pre-incubation 60 minutes at 25° C.) came out at 0.662 nM; in data set [1] it was 20 nM; in data set [2], 50 nM; in data set [4], 2.68 nM. Further, the “effective inhibition time on the kinase activity of FAK” value in [9] (pre-incubation 0, 15 and 60 minutes, compared to defactinib) is “longer effective inhibition time”. Further, in data set [3], the “inhibition of activated YAP (non-p-YAP)” value was “inhibit the activated YAP (non-p-YAP)”. In addition, in data set [5], the “inhibition … (p-FAK 397)” value is on record as “can inhibit the phosphorylation of FAK (p-FAK 397)”.
As to `C=CC(=O)N1CCCC(c2cccc(NCc3ccc(Nc4ncc(C(F)(F)F)c(Nc5ccccc5S(=O)(=O)NC)n4)cc3)c2)C1` (stereo not drawn) [Compound 30, 2-((2-((4-(((3-(1-acryloylpiperidin-3-yl)phenyl)amino)methyl)phenyl)amino)-5-(trifluoromethyl)pyrimidin-4-yl)amino)-N-methylbenzenesulfonamide], the IC50 in data set [2] was determined as 90 nM; in data set [4] it was 3.75 nM.
On to `C=CC(=O)N1CCCC(c2cccc(NCc3ccc(Nc4ncc(C(F)(F)F)c(Nc5ccccc5C(=O)NOC)n4)cc3)c2)C1` (stereo not drawn) [Compound 11, 2-((2-((4-(((3-(1-acryloylpiperidin-3-yl)phenyl)amino)methyl)phenyl)amino)-5-(trifluoromethyl)pyrimidin-4-yl)amino)-N-methoxybenzamide], for which, in [6], the “effect on cell morphology of DGC organoid” value was “significantly better effects than defactinib and IN-10018”. Moreover, the IC50 in data set [1] is 90 nM; in data set [4] it was 5.67 nM. Also, the “inhibition of activated YAP (non-p-YAP)” value in [3] is “inhibit the activated YAP (non-p-YAP)”. Besides, the “inhibition … (p-FAK 397)” value in data set [5] is “can inhibit the phosphorylation of FAK (p-FAK 397)”.
Take `COc1cc(C(=O)NC2CCN(C)CC2)c(F)cc1Nc1ncc(C(F)(F)F)c(Oc2cccc3c2C(=O)N(C)C3)n1` [IN10018, reference compound]: the IC50 in data set [1] amounted to 3500 nM; in data set [2], 8400 nM. The “inhibition of YAP activity (non-p-YAP)” value in data set [7] is “no inhibiting effect on YAP activity”.
